From US20250179032A1, “HETEROCYCLIC INHIBITORS OF GLUT9 FOR TREATMENT OF DISEASE” (HORIZON THERAPEUTICS IRELAND DAC, priority 2022, published 2025) come the findings set out here.

Bounds are passed on as bounds.

The assay has as its target T1, H. sapiens SLC2A9 variant 2 (GLUT9B) (Homo sapiens, UniProt Q9NRM0).
T1 sequence (Q9NRM0 1-511 isoform Q9NRM0-2): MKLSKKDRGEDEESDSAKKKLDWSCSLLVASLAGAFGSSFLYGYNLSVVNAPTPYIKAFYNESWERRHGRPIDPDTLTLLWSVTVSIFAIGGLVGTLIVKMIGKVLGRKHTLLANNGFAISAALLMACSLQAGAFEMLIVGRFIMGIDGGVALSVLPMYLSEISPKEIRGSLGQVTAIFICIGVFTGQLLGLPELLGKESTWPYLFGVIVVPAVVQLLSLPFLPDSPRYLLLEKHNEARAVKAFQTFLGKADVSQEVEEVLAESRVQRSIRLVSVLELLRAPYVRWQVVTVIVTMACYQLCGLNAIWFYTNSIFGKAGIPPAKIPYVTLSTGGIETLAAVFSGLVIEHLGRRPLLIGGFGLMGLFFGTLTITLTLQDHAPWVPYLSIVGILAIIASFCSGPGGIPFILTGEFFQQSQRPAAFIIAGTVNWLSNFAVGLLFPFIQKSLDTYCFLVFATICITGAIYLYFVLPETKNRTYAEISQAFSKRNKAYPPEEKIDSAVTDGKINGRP
The experiment in a line: GLUT9 functional assay: uric acid uptake in HEK293T cells, allantoin formation by MS/MS as proxy of GLUT9B inhibition. The assay is classed as cell-based. The note with it: 15 minute assay; HEK293T cells stably expressing GLUT9B and transiently A. oryzae uricase; uric acid 0.3 mM, 37° C.; read-out: 15 min IC50. The method in brief:
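HEK293T cells stably expressing human GLUT9B and transiently expressing A. oryzae uricase, exposed across a 12-point curve to 0.3 mM uric acid (Km) in sodium gluconate buffer pH 7.4 for 15 or 60 min at 37° C. Allantoin in lysates quantified by RapidFire MS/MS (positive ion) against a matrix-matched standard curve as proxy for uptake.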
In general, IC50 refers to the concentration that gives 50% inhibition. For the compound `O=C(O)c1c[nH]c2cc(-c3cc(CCC(F)(F)F)cnc3-c3cc(F)c4occc4c3)ccc12` [Compound 63, 6-(2-(7-fluorobenzofuran-5-yl)-5-(3,3,3-trifluoropropyl)pyridin-3-yl)-1H-indole-3-carboxylic acid], the IC50 fell in the range of 500 to 2000 nM. As for `O=C(O)C1CCN(c2nc(COCC(F)(F)F)cnc2-c2cnc3occc3c2)CC1` [Compound 64, 1-(3-(furo[2,3-b]pyridin-5-yl)-6-((2,2,2-trifluoroethoxy)methyl)pyrazin-2-yl)piperidine-4-carboxylic acid], the IC50 is above 2000 nM. For `Fc1cc(-c2ncc(COCC(F)(F)F)nc2N2CCC(c3nn[nH]n3)CC2)cc2ccoc12` [Compound 65, 3-(4-(2H-tetrazol-5-yl)piperidin-1-yl)-2-(7-fluorobenzofuran-5-yl)-5-((2,2,2-trifluoroethoxy)methyl)pyrazine] the value was below 500 nM. The result for `CS(=O)(=O)NC(=O)C1CCN(c2nc(COCC(F)(F)F)cnc2-c2cc(F)c3occc3c2)CC1` [Compound 66, 1-(3-(7-fluorobenzofuran-5-yl)-6-((2,2,2-trifluoroethoxy)methyl)pyrazin-2-yl)-N-(methylsulfonyl)piperidine-4-carboxamide] reads 500 to 2000 nM; that for `COCCOc1ccc(-c2ncc(COCC(F)(F)F)nc2N2CCC(C(=O)NS(C)(=O)=O)CC2)cc1` [Compound 67, 1-(3-(4-(2-methoxyethoxy)phenyl)-6-((2,2,2-trifluoroethoxy)methyl)pyrazin-2-yl)-N-(methylsulfonyl)piperidine-4-carboxamide], above 2000 nM; that for `COCCOc1ccc(-c2ncc(COCC(F)(F)F)nc2N2CCC(c3nn[nH]n3)CC2)cc1` [Compound 68, 3-(4-(2H-tetrazol-5-yl)piperidin-1-yl)-2-(4-(2-methoxyethoxy)phenyl)-5-((2,2,2-trifluoroethoxy)methyl)pyrazine], above 2000 nM. For `Fc1cc(-c2ncc(CCC(F)(F)F)nc2N2CCC(c3nn[nH]n3)CC2)cc2ccoc12` [Compound 69, 3-(4-(2H-tetrazol-5-yl)piperidin-1-yl)-2-(7-fluorobenzofuran-5-yl)-5-(3,3,3-trifluoropropyl)pyrazine] the value was below 500 nM; for `COCCOc1ccc(-c2ncc(CCC(F)(F)F)nc2N2CCC(C(=O)NS(C)(=O)=O)CC2)cc1` [Compound 70, 1-(3-(4-(2-methoxyethoxy)phenyl)-6-(3,3,3-trifluoropropyl)pyrazin-2-yl)-N-(methylsulfonyl)piperidine-4-carboxamide], 500 to 2000 nM; for `COCCOc1ccc(-c2ncc(CCC(F)(F)F)nc2N2CCC(c3nn[nH]n3)CC2)cc1` [Compound 71, 3-(4-(2H-tetrazol-5-yl)piperidin-1-yl)-2-(4-(2-methoxyethoxy)phenyl)-5-(3,3,3-trifluoropropyl)pyrazine], below 500 nM. For the compound `O=C(O)C1CCN(c2nc(COCC(F)(F)F)cnc2-c2cnc3c(c2)CCO3)CC1` [Compound 72, 1-(3-(2,3-dihydrofuro[2,3-b]pyridin-5-yl)-6-((2,2,2-trifluoroethoxy)methyl)pyrazin-2-yl)piperidine-4-carboxylic acid], the IC50 is above 2000 nM. For the compound `O=C(O)C1CCN(c2nc(CCC3CC3)cnc2-c2cc(F)c3occc3c2)CC1` [Compound 73, 1-(6-(2-cyclopropylethyl)-3-(7-fluorobenzofuran-5-yl)pyrazin-2-yl)piperidine-4-carboxylic acid], the IC50 is below 500 nM. For `COCCOc1ccc(-c2ncc(CCC3CC3)nc2N2CCC(C(=O)O)CC2)cc1` [Compound 74, 1-(6-(2-cyclopropylethyl)-3-(4-(2-methoxyethoxy)phenyl)pyrazin-2-yl)piperidine-4-carboxylic acid] the value was 500 to 2000 nM; for `O=C(O)C1CCN(c2nc(COCC(F)(F)F)cnc2-c2ccc(OC3CC3)cc2)CC1` [Compound 75, 1-(3-(4-cyclopropoxyphenyl)-6-((2,2,2-trifluoroethoxy)methyl)pyrazin-2-yl)piperidine-4-carboxylic acid], above 2000 nM; for `O=C(O)C1CCN(c2nc(COCC(F)(F)F)cnc2-c2ccc(OC3CC3)c(F)c2)CC1` [Compound 76, 1-(3-(4-cyclopropoxy-3-fluorophenyl)-6-((2,2,2-trifluoroethoxy)methyl)pyrazin-2-yl)piperidine-4-carboxylic acid], 500 to 2000 nM.

`O=C(O)C1CCN(c2nc(COCC(F)(F)F)cnc2-c2ccc(OCC3CC3)cc2)CC1` [Compound 77, 1-(3-(4-(cyclopropylmethoxy)phenyl)-6-((2,2,2-trifluoroethoxy)methyl)pyrazin-2-yl)piperidine-4-carboxylic acid]: the IC50 was above 2000 nM. Take `O=C(O)C1CCN(c2nc(COCC(F)(F)F)cnc2-c2ccc(OCC3CC3)c(F)c2)CC1` [Compound 78, 1-(3-(4-(cyclopropylmethoxy)-3-fluorophenyl)-6-((2,2,2-trifluoroethoxy)methyl)pyrazin-2-yl)piperidine-4-carboxylic acid]: the IC50 is above 2000 nM. In the case of `CCCCc1cnc(-c2ccc3c(c2)CC(C)(C)O3)c(N2CCC(C(=O)O)CC2)n1` [Compound 79, 1-(6-butyl-3-(2,2-dimethyl-2,3-dihydrobenzofuran-5-yl)pyrazin-2-yl)piperidine-4-carboxylic acid], the IC50 is above 2000 nM.

As to `CN(C)S(=O)(=O)NC(=O)C1CCN(c2nc(COCC(F)(F)F)cnc2-c2cc(F)c3occc3c2)CC1` [Compound 80, N-(N,N-dimethylsulfamoyl)-1-(3-(7-fluorobenzofuran-5-yl)-6-((2,2,2-trifluoroethoxy)methyl)pyrazin-2-yl)piperidine-4-carboxamide], the IC50 was 500 to 2000 nM. The result for `O=c1[nH]c(C2CCN(c3nc(COCC(F)(F)F)cnc3-c3cc(F)c4occc4c3)CC2)ns1` [Compound 81, 3-(1-(3-(7-fluorobenzofuran-5-yl)-6-((2,2,2-trifluoroethoxy)methyl)pyrazin-2-yl)piperidin-4-yl)-1,2,4-thiadiazol-5(4H)-one] reads 500 to 2000 nM. For `O=c1[nH]c(C2CCN(c3nc(COCC(F)(F)F)cnc3-c3cc(F)c4occc4c3)CC2)no1` [Compound 82, 3-(1-(3-(7-fluorobenzofuran-5-yl)-6-((2,2,2-trifluoroethoxy)methyl)pyrazin-2-yl)piperidin-4-yl)-1,2,4-oxadiazol-5(4H)-one] the value was below 500 nM; for `O=S1NC(C2CCN(c3nc(COCC(F)(F)F)cnc3-c3cc(F)c4occc4c3)CC2)=NO1` (centres unmarked) [Compound 83, 4-(1-(3-(7-fluorobenzofuran-5-yl)-6-((2,2,2-trifluoroethoxy)methyl)pyrazin-2-yl)piperidin-4-yl)-3H-1,2,3,5-oxathiadiazole 2-oxide], 500 to 2000 nM. On to `CS(=O)(=O)CCc1cnc(-c2cc(F)c3occc3c2)c(N2CCC(C(=O)O)CC2)n1` [Compound 84, 1-(3-(7-fluorobenzofuran-5-yl)-6-(2-(methylsulfonyl)ethyl)pyrazin-2-yl)piperidine-4-carboxylic acid], for which the IC50 was above 2000 nM. In the case of `COCCOc1ccc(-c2ncc(CCS(C)(=O)=O)nc2N2CCC(C(=O)O)CC2)cc1` [Compound 85, 1-(3-(4-(2-methoxyethoxy)phenyl)-6-(2-(methylsulfonyl)ethyl)pyrazin-2-yl)piperidine-4-carboxylic acid], the IC50 was above 2000 nM.

On to `COCCOc1ccc(-c2ncc(CCC(F)(F)F)nc2N2CCC(C(=O)O)CC2)cc1` [Compound 86, 1-(3-(4-(2-methoxyethoxy)phenyl)-6-(3,3,3-trifluoropropyl)pyrazin-2-yl)piperidine-4-carboxylic acid], for which the IC50 lay within 500 to 2000 nM.

`O=C(O)C1CCN(c2nc(CCC(F)(F)F)cnc2-c2cnc3c(c2)CCO3)CC1` [Compound 87, 1-(3-(2,3-dihydrofuro[2,3-b]pyridin-5-yl)-6-(3,3,3-trifluoropropyl)pyrazin-2-yl)piperidine-4-carboxylic acid]: the IC50 was above 2000 nM. For `O=C(O)CC1CCN(c2nc(CCC(F)(F)F)cnc2-c2cc(F)c3occc3c2)C1` (centres unmarked) [Compound 88, 2-(1-(3-(7-fluorobenzofuran-5-yl)-6-(3,3,3-trifluoropropyl)pyrazin-2-yl)pyrrolidin-3-yl)acetic acid] the value was 500 to 2000 nM; for `O=C(O)CCC1CN(c2nc(CCC(F)(F)F)cnc2-c2cc(F)c3occc3c2)C1` [Compound 89, 3-(1-(3-(7-fluorobenzofuran-5-yl)-6-(3,3,3-trifluoropropyl)pyrazin-2-yl)azetidin-3-yl)propanoic acid], 500 to 2000 nM; for `O=C(O)CC1CN(c2nc(CCC(F)(F)F)cnc2-c2cc(F)c3occc3c2)C1` [Compound 90, 2-(1-(3-(7-fluorobenzofuran-5-yl)-6-(3,3,3-trifluoropropyl)pyrazin-2-yl)azetidin-3-yl)acetic acid], 500 to 2000 nM. On to `O=C(O)C1(O)CCN(c2nc(CCC(F)(F)F)cnc2-c2cc(F)c3occc3c2)CC1` [Compound 91, 1-(3-(7-fluorobenzofuran-5-yl)-6-(3,3,3-trifluoropropyl)pyrazin-2-yl)-4-hydroxypiperidine-4-carboxylic acid], for which the IC50 was below 500 nM.
